From publication PMC5800494 (ACS chemical biology, 2017)
pIC50, pKd: −log10 of the molar value. In brackets after ≈: the same amount, converted by molar mass.

Tests used:
[1] = tested on: E. coli MB5746 RpoZ (RNAP ω subunit) Δ35–91 (frameshift) mutant; assay: Broth microdilution MIC on MRL-436-resistant mutant; assay type: cell-based; settings: RpoZ Δ35–91 (frameshift) mutant of MB5746
RNAP (reconstituted) = RNAP (reconstituted) (Escherichia coli, UniProt P0A800+P0A8T7+P0A8V2); assay: biochemical; assay type: biochemical, E. coli
E. coli RNAP core enzyme = E. coli RNAP core enzyme (Escherichia coli, UniProt P0A800+P0A8T7+P0A8V2); assay: AS-MS; assay type: binding
[2] = tested on: E. coli MB5746 RpoZ (RNAP ω subunit) Δ23–91 (frameshift) mutant; assay: Broth microdilution MIC on MRL-436-resistant mutant; assay type: cell-based; settings: RpoZ Δ23–91 (frameshift) mutant of MB5746
[3] = tested on: E. coli MB5746 RpoZ (RNAP ω subunit) Δ24–91 (frameshift) mutant; assay: as above; assay type: cell-based; settings: RpoZ Δ24–91 (frameshift) mutant of MB5746
[D622G]β′-RNAP = Fluorescence-detected RNAP inhibition assay; assay type: biochemical, E. coli; settings: enzyme: [D622G]β′-RNAP vs RNAP (co-expressed)
[S531L]β-RNAP = [S531L]β-RNAP (Escherichia coli, UniProt P0A800+P0A8T7+P0A8V2, S531L); assay: biochemical; design: species or system E. coli
Δω RNAP = assay type: biochemical, E. coli; settings: enzyme: Δω RNAP vs RNAP (reconstituted)
[H526D]β-RNAP = [H526D]β-RNAP (Escherichia coli, UniProt P0A800+P0A8T7+P0A8V2, H526D); assay: biochemical; design: species or system E. coli
[4] = biological target: RNAP (wild-type, co-expressed) (Escherichia coli, UniProt P0A800+P0A8T7+P0A8V2); assay: biochemical; design: species or system E. coli
[5] = tested on: E. coli MB5746 RpoZ (RNAP ω subunit) Δ13–91 (frameshift) mutant; assay: Broth microdilution MIC on MRL-436-resistant mutant; assay type: cell-based; settings: RpoZ Δ13–91 (frameshift) mutant of MB5746
[6] = tested on: E. coli D21f2tolC Rif^R-H526D (rfa tolC rpoB-H526D); assay: Broth microdilution MIC; assay type: cell-based; settings: Escherichia coli
[7] = tested on: E. coli MB5746 RpoZ (RNAP ω subunit) Δ1–91 (deletion); assay: Broth microdilution MIC on constructed ΔrpoZ strain; assay type: cell-based; settings: RpoZ Δ1–91 (deletion) of MB5746
[8] = tested on: E. coli MB5746 (lpxC tolC); assay: Broth microdilution MIC; assay type: cell-based; settings: Escherichia coli
[D516V]β-RNAP = [D516V]β-RNAP (Escherichia coli, UniProt P0A800+P0A8T7+P0A8V2, D516V); assay: biochemical; design: species or system E. coli
RNAP = RNAP (Escherichia coli, UniProt P0A800+P0A8T7+P0A8V2); assay: biochemical; design: species or system E. coli
[9] = tested on: E. coli D21f2tolC Rif^R-D516V (rfa tolC rpoB-D516V); assay: Broth microdilution MIC; assay type: cell-based; settings: Escherichia coli
[10] = tested on: E. coli MB5746 RpoC (RNAP β′ subunit) D622G mutant; assay: Broth microdilution MIC on MRL-436-resistant mutant; assay type: cell-based; settings: RpoC D622G mutant of MB5746
[11] = tested on: E. coli MB5746 RpoZ (RNAP ω subunit) Δ21–91 (frameshift) mutant; assay: as above; assay type: cell-based; settings: RpoZ Δ21–91 (frameshift) mutant of MB5746
yeast invertase = yeast invertase (Saccharomyces cerevisiae, UniProt P00724); settings: compound at 10 μM against 5μM invertase
[12] = tested on: E. coli D21f2tolC Rif^R-S531L (rfa tolC rpoB-S531L); assay: Broth microdilution MIC; assay type: cell-based; settings: Escherichia coli
[13] = tested on: E. coli D21f2tolC (rfa tolC); assay: Broth microdilution MIC; assay type: cell-based; settings: Escherichia coli

**Q.** For `CO[C@H]1/C=C/O[C@@]2(C)Oc3c(C)c(O)c4c(O)c(c(/C=N/N5CCN(C)CC5)c(O)c4c3C2=O)NC(=O)/C(C)=C\C=C\[C@H](C)[C@H](O)[C@@H](C)[C@@H](O)[C@@H](C)[C@H](OC(C)=O)[C@@H]1C` [Rif, rifampin], which “resistance level (MIC/MICwild-type)” value [1] is on record?
**A.** Its value is 1.

**Q.** And the pIC50 (RNAP (reconstituted))?
**A.** The pIC50 was 7.40.

**Q.** And the “IC50 ratio (IC50/IC50wild-type)” value (RNAP (reconstituted); enzyme: RNAP (reconstituted))?
**A.** The value was 1.

**Q.** And the pKd (E. coli RNAP core enzyme)?
**A.** Its pKd is greater than 5.70.

**Q.** And the “resistance level (MIC/MICwild-type)” value [2]?
**A.** Its value is 1.

**Q.** What about the “resistance level (MIC/MICwild-type)” value [3] of the same molecule?
**A.** The value was 1.

**Q.** And the “IC50 ratio (IC50/IC50wild-type)” value ([D622G]β′-RNAP)?
**A.** Its value is 1.

**Q.** What about the pIC50 ([S531L]β-RNAP) of the same molecule?
**A.** The pIC50 was 4.10.

**Q.** What about the “IC50 ratio (IC50/IC50wild-type)” value (Δω RNAP) of the same molecule?
**A.** Its value is 0.5.

**Q.** What about the pIC50 ([H526D]β-RNAP) of the same molecule?
**A.** The pIC50 was less than 4.00.

**Q.** And the pIC50 [4]?
**A.** The pIC50 was 7.52.

**Q.** What about the “IC50 ratio (IC50/IC50wild-type)” value ([4]; enzyme: RNAP (co-expressed)) of the same molecule?
**A.** The value was 1.

**Q.** And the “resistance level (MIC/MICwild-type)” value [5]?
**A.** The value was 1.

**Q.** And the MIC [6]?
**A.** Its MIC is 128 µg/mL (≈ 156 µM).

**Q.** And the “resistance level (MIC/MICwild-type)” value [7]?
**A.** Its value is 1.

**Q.** What about the MIC [8] of the same molecule?
**A.** Its MIC is 0.5 µg/mL (≈ 0.608 µM).

**Q.** What about the pIC50 ([D516V]β-RNAP) of the same molecule?
**A.** Its pIC50 is 4.15.

**Q.** What about the pIC50 (RNAP) of the same molecule?
**A.** The pIC50 was 7.70.

**Q.** And the MIC [9]?
**A.** Its MIC is 32 µg/mL (≈ 38.9 µM).

**Q.** What about the “resistance level (MIC/MICwild-type)” value [10] of the same molecule?
**A.** Its value is 1.

**Q.** And the “resistance level (MIC/MICwild-type)” value [11]?
**A.** Its value is 1.

**Q.** And the “AS-MS signal against invertase (selectivity counter-screen)” value (yeast invertase)?
**A.** The value was “did not show an AS-MS signal”.

**Q.** What about the MIC [12] of the same molecule?
**A.** Its MIC is 64 µg/mL (≈ 77.8 µM).

**Q.** And the MIC [13]?
**A.** The MIC was 0.5 µg/mL (≈ 0.608 µM).
